Assays:
[1] = system: Drosophila hemocytes; experiment: Bafilomycin perturbation of endosomal chloride concentration and pH in hemocytes; type: cell-based
Protocol: Bafilomycin is used to perturb endosomal Chloride ion concentration [Cl^−] and these perturbations are followed by changes in R/G ratios in Clensor labeled endosomes of Drosophila hemocytes. pH is simultaneously measured in this system by pulsing with about 2 mg/mL 10 kDa FITC-dextran (FD10) for about 5 minutes at room temperature and chased for about 120 minutes at about 20° C. The cells are then incubated with 1×M1 buffer containing about 200 nM Bafilomycin followed by a 120 minute chase at about 20° C. in the same buffer.
Intracellular pH is measured by the Dual Excitation Method. λEx480/λEx 430 emission ratios show about 2.1 fold decrease in pH as a function of time till about 120 minutes post endocytosis, indicating the expected decrease in pH in hemocytes (FIG. 16a, black). Upon Bafilomycin treatment, endosomal pH is reversed as given by gradual increase (˜2.2 fold) in λEx480/λEx 430 emission ratios (FIG. 16a, black). […]
FIG. 16 depicts the integrity of Clensor during endosomal maturation. […] Chloride concentrations and pH values are monitored after Bafilomycin treatment. […] Endosomal pH is monitored by ratios of the intensity at 530 nm when the FITC is excited at 480 nm and 430 nm (λex480/λex 430). […]

[2] = system: endosomal compartments of Drosophila hemocytes; experiment: Chloride concentration in endosomal compartments of hemocytes under chemical perturbation, measured with Clensor; type: cell-based; conditions: +NPPB
Protocol: Hemocytes are washed with 1×M1 buffer (150 mM NaCl, […], 1 mM CaCl2, 1 mM MgCl2, 20 mM HEPES pH 7.2) prior to labeling. Hemocytes are incubated with 2 μM of Clensor sample (diluted in 1×M1 buffer) for 5-10 minutes (depending on the signal again, *for measurements in early endosomes 5 min pulse is given*) and then washed 3-4 times with 1×M1 and then chased for an additional 5 to 120 minutes. For a chase longer than 5 minutes, 1×M1 is replaced by complete insect medium and transferred to a 20° C. incubator. For 5 minute chases, cells are washed and then imaged in 1×M1.
For Chloride ion […] measurement experiments, after pulsing with Clensor, cells are chased for (i) 5 min (Early Endosome), (ii) 60 min (Late endosome) and (iii) 120 min (Lysosome). Each set of cells are then imaged live, acquiring two images for each set of cells. (i) Ex=480/20, Dichroic=500-600 BP, Em=535/40 and (ii) Ex=640/30, Dichroic=665 LP, Em=690/50.
Hemocytes are pulsed with 2 μM of Clensor sample for 30 minutes (for development of a signal), washed 3-4 times with 1×M1 followed by a 5 minute chase in same medium. Cells are then fixed with 200 μL 2.5% paraformaldehyde (PFA) for 20 minutes at room temperature, quickly washed 3 times and retained in 1×M1. To obtain intracellular Chloride ion (Cl^−) calibration curve, perfusate and endosomal Chloride ion (Cl^−) concentration are equalized by incubating the previously fixed cells in 120 mM KCl/KNO3, 20 mM NaCl/NaNO3, 1 mM CaCl2/Ca(NO3)2, 1 mM MgCl2/Mg(NO3)2, and 10 mM HEPES at pH 7.2, with Chloride ion (Cl^−) concentration from about 0-80 mM (NO3^− replacing Cl^−) for about 3 hours at room temperature. Chloride clamping solution contains Nigericin (10 μM)+Valinomycin (10 μM)+CCCP (5 μM)+Monensin (10 μM)+Bafilomycin (200 nM). The cells are imaged in the same buffer.
Here, the hemocytes are treated with a non-specific chloride ion channel blocker NPPB (5-nitro-2-(3-phenylpropylamino)-benzoate).

Molecule | increase in λEx480/λEx 430 emission ratios (reversal of endosomal pH) ([1]; 200 nM Bafilomycin, FITC-dextran labeled hemocytes, after 120 min chase) | change of R/G ratios of Clensor labeled endosomes (endosomal [Cl−]) ([1]; after 200 nM Bafilomycin treatment) | Mean [Cl−] ± s.e.m, EE ([2]; early endosomes, 5 min) | Mean [Cl−] ± s.e.m, LE ([2]; late endosomes, 60 min) | Mean [Cl−] ± s.e.m, LY ([2]; lysosomes, 120 min)
Bafilomycin | ~2.2 fold | R/G ratios gradually decrease |  |  | 
O=C(O)c1cc([N+](=O)[O-])ccc1NCCCc1ccccc1 [NPPB, 5-nitro-2-(3-phenylpropylamino)-benzoate] |  |  | 9.3 ± 1.5 mM | 33.8 ± 2.5 mM | 86.5 ± 3.5 mM
